Laboratory results reported in patent US9593099B2, “Compounds and compositions as protein kinase inhibitors” (Array BioPharma, Inc., priority 2009, dated 2017).

Tests used:
[1] = In Vivo Pharmacokinetics Assay in mouse
Method: In Vivo Pharmacokinetics Assay
(§1) Full pharmacokinetics study: Male Balb/c mice (n=3, body weights 22-25 g) or male Wistar rats (n=3, body weights 250-300 g) were administered the test compound intravenously via the lateral tail vein or orally via gavage. The formulation was typically a 2.5 mg/mL solution of the compound in 75% PEG300 and 25% D5W. Six blood samples of 50 μL each were collected serially for 24 h after dosing. The blood samples were centrifuged to separate the plasma. Plasma samples were analyzed and quantified by LC-MS/MS.
as §1, with “Rapid” for “Full”, “intravenously (IV)” for “intravenously”, “orally (PO)” for “orally”, “Blood” for “The blood”, “and plasma separated and pooled across” for “to separate”, “three animals at each time point per dose route.” for “plasma.”
For both full and rapid pharmacokinetics studies, the following parameters were calculated by non-compartmental regression analysis using Winnonlin 5.0 software (Pharsight, Mountain View, Calif., USA): plasma clearance (Cl), plasma maximum concentration (Cmax), plasma area-under-the-concentration-time-curve (AUC0-inf), and percent oral bioavailability (F %).

[2] = Liver Microsomal Clearance Assay, human; format: in vitro ADME
Excerpt: Liver Microsomal Clearance Assay
The in vitro microsomal clearance assay is designed to assess potential risks associated with hepatic metabolic stability of compounds. […] These values may be scaled to predict hepatic metabolic clearance rate (CLh, mL/min/kg) and extraction ratio (ER, expressed as a ratio of the predicted hepatic metabolic clearance to hepatic blood flow in that species). In general, compounds with high predicted CLint or ER in vitro are considered to be at high risk for exposure-limiting metabolism in vivo.

SW620 cells = assay: SW620 Cell Viability Assay (Cell Titer Glo); format: cell-based; settings: 9 serial dilutions between 10 and 0.002 μM, without MEK inhibitor
Method: The present invention also includes combinations of the BRaf inhibitors disclosed in this invention with other agents. In particular, the present invention provides for combinations with MEK1/2 inhibitors. FIG. 1 illustrates that the addition of a MEK small molecule inhibitor can reverse the induced ERK signaling, cell growth and transformation caused by a Raf small molecule inhibitor.
SW620 Cell Viability Assay
SW620 cells were seeded in 1640 RPMI+10% FBS at a density of 1500 cells per 96-well in black walled, clear bottom tissue culture treated plates. Test compounds were serially diluted in DMSO then added to the cells (final DMSO concentration of 0.1%) and incubated at 37° C. and 5% CO2 for 4 days. To measure cell viability, cell plates were brought to room temperature, culture media was removed, and 200 μl of Cell Titer-Glo reagent (Promega, kit components mixed as per the manufacturer's protocol then diluted 1:2 with growth media) was added to each well. Plates were shaken for 5 minutes, then incubated at room temperature for 5 minutes, and the luminescence was measured (Trilux, Perkin Elmer).

p38α MAP Kinase = assay: A549 p38α MAP Kinase Bright-Glo Reporter Gene Assay; format: cell-based; settings: ratio of A549 p38 RGA IC50 to A375 CP IC50
Method: A549 p38α MAP Kinase Bright-Glo Reporter Gene Assay
A549 cells were stably-transfected with the IL-8 promoter driven reporter, pGL3-IL8-Luc. The cells were plated at 4×10^5/ml into 384-well solid white plates (40 ul/well, 5% CD-FBS, 1×P/S, DMEM) and were incubated overnight (18-20 hours) at 37° C. Test compounds were serially diluted in DMSO, then 50 nl of test solution was added to the incubation (final DMSO concentration of 0.1%). After incubating with test compound for 30 min, cells were stimulated with 1 ng/ml IL-1 beta (10 ul of 5 ng/ml solution per well). Bright-Glo (25 ul/well) was added to measure luciferase expression after 7-8 hours of stimulation.

**Q.** Which F ([1]; PO/IV 5/2 mg/kg, n = 1) does the source give for `CCCS(=O)(=O)Nc1cc(Cl)cc(-c2nn(C(C)C)cc2-c2ccnc(NC[C@H](C)NC(=O)OC)n2)c1F` [Compound 1, Methyl N-[(2S)-1-[(4-{3-[5-chloro-2-fluoro-3-(propane-1-sulfonamido)phenyl]-1-(propan-2-yl)-1H-pyrazol-4-yl}pyrimidin-2-yl)amino]propan-2-yl]carbamate] here?
**A.** 46 (n = 1) %

**Q.** For `CCCS(=O)(=O)Nc1cccc(-c2nn(C(C)C)cc2-c2ccnc(NC[C@H](C)NC(=O)OC)n2)c1F` [Compound 3, methyl N-[(2S)-1-[(4-{3-[2-fluoro-3-(propane-1-sulfonamido)phenyl]-1-(propan-2-yl)-1H-pyrazol-4-yl}pyrimidin-2-yl)amino]propan-2-yl]carbamate], which F ([1]; PO/IV 5/2 mg/kg, n = 1) is on record?
**A.** 6 (n = 1) %

**Q.** Which F ([1]; PO/IV 10/2 mg/kg) does the source give for `COC(=O)N[C@@H](C)CNc1nccc(-c2cn(C(C)C)nc2-c2cccc(NS(C)(=O)=O)c2F)n1` [Compound 4, methyl N-[(2S)-1-({4-[3-(2-fluoro-3-methanesulfonamidophenyl)-1-(propan-2-yl)-1H-pyrazol-4-yl]pyrimidin-2-yl}amino)propan-2-yl]carbamate] here?
**A.** 36 ± 6%

**Q.** What does the source list for `COC(=O)N[C@@H](C)CNc1nccc(-c2cn(C(C)C)nc2-c2c(F)ccc(NS(C)(=O)=O)c2F)n1` [Compound 6, methyl N-[(2S)-1-({4-[3-(2,6-difluoro-3-methanesulfonamidophenyl)-1-(propan-2-yl)-1H-pyrazol-4-yl]pyrimidin-2-yl}amino)propan-2-yl]carbamate]?
**A.** ER (human) [2]: 0.69; F ([1]; PO/IV 10/2 mg/kg): 15 ± 3%

**Q.** For `CCCS(=O)(=O)Nc1ccc(F)c(-c2nn(C(C)C)cc2-c2ccnc(NC[C@H](C)NC(=O)OC)n2)c1F` [Compound 7, Methyl N-[(2S)-1-[(4-{3-[2,6-difluoro-3-(propane-1-sulfonamido)phenyl]-1-(propan-2-yl)-1H-pyrazol-4-yl}pyrimidin-2-yl)amino]propan-2-yl]carbamate], which F ([1]; PO/IV 10/2 mg/kg) is on record?
**A.** 8 ± 7%

**Q.** For `COC(=O)N[C@@H](C)CNc1nccc(-c2cn(C(C)C)nc2-c2cc(Cl)cc(NS(C)(=O)=O)c2F)n1` [Compound 9, Methyl N-[(2S)-1-({4-[3-(5-chloro-2-fluoro-3-methanesulfonamidophenyl)-1-(propan-2-yl)-1H-pyrazol-4-yl]pyrimidin-2-yl}amino)propan-2-yl]carbamate], which “ER (human)” value [2] is on record?
**A.** < 0.21

**Q.** What about the F ([1]; PO/IV 10/2 mg/kg) of the same molecule?
**A.** 43 ± 6%

**Q.** What about the “effect on cellular proliferation (negative inhibition in FIG. 1)” value (SW620 cells) of the same molecule?
**A.** induction in cellular proliferation

**Q.** With `CNc1nccc(-c2cn(C(C)C)nc2-c2cc(Cl)cc(NS(C)(=O)=O)c2F)n1` [Compound 29, N-(5-chloro-2-fluoro-3-{4-[2-(methylamino)pyrimidin-4-yl]-1-(propan-2-yl)-1H-pyrazol-3-yl}phenyl)methanesulfonamide] as the molecule, how does the “(p38 RGA)/(A375) ratio” value (p38α MAP Kinase) read?
**A.** 220

**Q.** Which “(p38 RGA)/(A375) ratio” value (p38α MAP Kinase) does the source give for `COC(=O)NC[C@H](C)Nc1nccc(-c2cn(C(C)C)nc2-c2cc(Cl)cc(NS(C)(=O)=O)c2F)n1` [Compound 32, Methyl N-[(2S)-2-({4-[3-(5-chloro-2-fluoro-3-methanesulfonamidophenyl)-1-(propan-2-yl)-1H-pyrazol-4-yl]pyrimidin-2-yl}amino)propyl]carbamate] here?
**A.** 91
